What all share (format): in vivo, human
Data set [1] in a line: Drug-related toxicities in HCC patients on oral sorafenib. Conditions: 400 mg bid oral. On the procedure: (§1) Patients with inoperable hepatocellular carcinoma (HCC), no prior systemic treatment, and Child-Pugh (CP) score of A or B, received oral sorafenib at 400 mg bid continuously in 4-week cycles. Tumor response was assessed every two cycles using modified WHO criteria and independent radiologic review. Plasma samples were collected to evaluate the pharmacokinetics (PK) of sorafenib. Biomarker assays were performed in selected patients. These included phospho-ERK levels via immunohistochemistry in pretreatment biopsies, plasma HER-2/neu analysis, plasma protein proteomics via mass spectrometry, and blood cell RNA expression patterns via Affymetrix GeneChip microarray analysis.

In data set [2] the test system is inoperable hepatocellular carcinoma (HCC). Description: Tumor response, TTP and survival in patients with inoperable hepatocellular carcinoma on oral sorafenib. The following applies: 400 mg bid oral. As to the method: as §1
Data set [3] can be described thus: Pharmacokinetics of sorafenib in plasma of HCC patients. The following applies: Child-Pugh A versus B HCC patients, 400 mg bid oral. On the procedure:
as §1

[4] abbreviates: 137 HCC patients, independent radiologic review.

Turning to “N-[4-chloro-3-(trifluoromethyl)phenyl]-N′-{4-[2-carbamoyl-1-oxo-(4-pyridyloxy)]phenyl}urea [sorafenib]”, in data set [1], the “grade ¾ drug-related toxicity leading to dose delay and/or modification: diarrhea” value was 4.4%, the “grade ¾ drug-related toxicity leading to dose delay and/or modification: fatigue” value turned out to be 5.8% and the “grade ¾ drug-related toxicity leading to dose delay and/or modification: hand-foot skin reaction” value is given as 5.1%. In addition, in data set [2] (137 HCC patients, continuous 4-week cycles, independent radiologic review, modified WHO criteria), the “patients who achieved a partial response” value is given as 2.2%. Moreover, in data set [2] (setting [4]), the “patients who achieved a minor response” value was 5.8% and the “patients with stable disease for at least 16 weeks as best response” value was found to be 33.6%. Besides, the median overall survival in data set [2] (HCC patients) was 9.2 months. In addition, in data set [2] (investigator-assessed, HCC patients), the “median TTP” value is on record as 4.2 months. For the same substance, the “pharmacokinetic differences between CP A and B patients” value in data set [3] was “no pharmacokinetic differences”.

(Values after US20090215835A1, “TREATMENT OF CANCER WITH SORAFENIB” (priority 2005, published 2009).)
